According to the supplement of paper PMC11451515:

Legend:
Settings in all cases: 48 h
NOMO1 [1] = assay: cell viability relative to DMSO control; higher = less cytotoxic
How it was run: (§1)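 Cells were incubated for 48 h at 37°C before CellTiter-Glo One luminescence was read. The cells were NOMO1 or SEM (500 cells/well) or P12-Ichikawa (1000 cells/well) leukemia cells, adapted for at least four passages in each medium and seeded in 1536-well plates (5 μl). Dosing used library compounds in DMSO applied by pin over 11 threefold points, 47 μM to 0.79 nM. Viability is the per-plate percentage of DMSO wells, with cell-free wells as background.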

P12-Ichikawa [2] = assay: as above
How it was run: as §1

SEM cells [3] = assay: as above
How it was run: as §1

NOMO1 [4] = assay: AUC of viability dose-response curve (% viability x log10 dose units); higher = less sensitive
How it was run: (§2)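 Area under the curve was integrated by trapezoidal rule from a log-logistic fit of normalised viability, with curves exceeding full viability scaled and quality-control failures removed. The fit had four parameters over log10 doses. Viability came from CellTiter-Glo One luminescence, normalised per plate to DMSO and cell-free wells, after leukemia cells adapted to each medium (500 or 1000 cells/well, 1536-well plates) were exposed to library compounds in DMSO for 48 h at 37°C. The 11 threefold doses ran from 47 μM to 0.79 nM.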

P12-Ichikawa [5] = assay: as above
How it was run: as §2

SEM cells [6] = assay: as above
How it was run: as §2

Cn1cnc2c1c(=O)[nH]c(=O)n2C
cell viability [%]
Settings	NOMO1 [1]	P12-Ichikawa [2]	SEM cells [3]
HPLM + 10% dialyzed FBS, 0.000781 µM	112	105	97.5
HPLM + 10% dialyzed FBS, 0.00234 µM	102	107	110
HPLM + 10% dialyzed FBS, 0.00702 µM	102	100	103
HPLM + 10% dialyzed FBS, 0.0211 µM	119	104	106
HPLM + 10% dialyzed FBS, 0.0632 µM	108	110	116
HPLM + 10% dialyzed FBS, 0.19 µM	110	105	115
HPLM + 10% dialyzed FBS, 0.569 µM	116	112	112
HPLM + 10% dialyzed FBS, 1.71 µM	96.4	108	107
HPLM + 10% dialyzed FBS, 5.12 µM	105	97.1	94.1
HPLM + 10% dialyzed FBS, 15.4 µM	78.3	98	91
HPLM + 10% dialyzed FBS, 46.1 µM	5.56	9.4	5.76
RPMI 5 mM glucose + 10% FBS, 0.000781 µM	99.2	104	92.7
RPMI 5 mM glucose + 10% FBS, 0.00234 µM	110	104	85.2
RPMI 5 mM glucose + 10% FBS, 0.00702 µM	96.2	93.9	106
RPMI 5 mM glucose + 10% FBS, 0.0211 µM	92.6	97.6	101
RPMI 5 mM glucose + 10% FBS, 0.0632 µM	97	103	93.2
RPMI 5 mM glucose + 10% FBS, 0.19 µM	96.5	103	107
RPMI 5 mM glucose + 10% FBS, 0.569 µM	103	100	93
RPMI 5 mM glucose + 10% FBS, 1.71 µM	88.1	98.5	94.3
RPMI 5 mM glucose + 10% FBS, 5.12 µM	99.3	99	79.6
RPMI 5 mM glucose + 10% FBS, 15.4 µM	91.6	82.2	61.8
RPMI 5 mM glucose + 10% FBS, 46.1 µM	7.98	34.1	5.77
RPMI 5 mM glucose + 10% dialyzed FBS, 0.000781 µM	101	102	95.3
RPMI 5 mM glucose + 10% dialyzed FBS, 0.00234 µM	91.7	102	99
RPMI 5 mM glucose + 10% dialyzed FBS, 0.00702 µM	99	103	90.9
RPMI 5 mM glucose + 10% dialyzed FBS, 0.0211 µM	114	102	108
RPMI 5 mM glucose + 10% dialyzed FBS, 0.0632 µM	109	100	111
RPMI 5 mM glucose + 10% dialyzed FBS, 0.19 µM	104	99.8	94.3
RPMI 5 mM glucose + 10% dialyzed FBS, 0.569 µM	100	103	108
RPMI 5 mM glucose + 10% dialyzed FBS, 1.71 µM	102	97.9	105
RPMI 5 mM glucose + 10% dialyzed FBS, 5.12 µM	96	87.2	96.8
RPMI 5 mM glucose + 10% dialyzed FBS, 15.4 µM	90	80.9	79.9
RPMI 5 mM glucose + 10% dialyzed FBS, 46.1 µM	9.87	25.7	6.67

AUC of viability dose-response curve
Settings	NOMO1 [4]	P12-Ichikawa [5]	SEM cells [6]
HPLM + 10% dialyzed FBS	440	452	447
RPMI 5 mM glucose + 10% FBS	443	452	415
RPMI 5 mM glucose + 10% dialyzed FBS	449	445	443

COC1=C2OC(=O)\C=C/C2=CC3=C1OC=C3
cell viability [%]
Settings	NOMO1 [1]	P12-Ichikawa [2]	SEM cells [3]
HPLM + 10% dialyzed FBS, 0.000781 µM	117	118	121
HPLM + 10% dialyzed FBS, 0.00234 µM	116	113	117
HPLM + 10% dialyzed FBS, 0.00702 µM	120	115	129
HPLM + 10% dialyzed FBS, 0.0211 µM	116	116	126
HPLM + 10% dialyzed FBS, 0.0632 µM	116	112	124
HPLM + 10% dialyzed FBS, 0.19 µM	123	107	123
HPLM + 10% dialyzed FBS, 0.569 µM	107	108	121
HPLM + 10% dialyzed FBS, 1.71 µM	118	102	115
HPLM + 10% dialyzed FBS, 5.12 µM	109	99.7	116
HPLM + 10% dialyzed FBS, 15.4 µM	101	61.3	107
HPLM + 10% dialyzed FBS, 46.1 µM	116	84.6	93.4
RPMI 5 mM glucose + 10% FBS, 0.000781 µM	108	118	–
RPMI 5 mM glucose + 10% FBS, 0.00234 µM	115	117	–
RPMI 5 mM glucose + 10% FBS, 0.00702 µM	115	117	–
RPMI 5 mM glucose + 10% FBS, 0.0211 µM	117	111	–
RPMI 5 mM glucose + 10% FBS, 0.0632 µM	121	109	–
RPMI 5 mM glucose + 10% FBS, 0.19 µM	113	110	–
RPMI 5 mM glucose + 10% FBS, 0.569 µM	96.5	113	–
RPMI 5 mM glucose + 10% FBS, 1.71 µM	104	110	–
RPMI 5 mM glucose + 10% FBS, 5.12 µM	108	109	–
RPMI 5 mM glucose + 10% FBS, 15.4 µM	105	55.6	–
RPMI 5 mM glucose + 10% FBS, 46.1 µM	97.3	86.8	–
RPMI 5 mM glucose + 10% dialyzed FBS, 0.000781 µM	104	115	123
RPMI 5 mM glucose + 10% dialyzed FBS, 0.00234 µM	109	117	132
RPMI 5 mM glucose + 10% dialyzed FBS, 0.00702 µM	115	119	124
RPMI 5 mM glucose + 10% dialyzed FBS, 0.0211 µM	117	125	110
RPMI 5 mM glucose + 10% dialyzed FBS, 0.0632 µM	114	108	123
RPMI 5 mM glucose + 10% dialyzed FBS, 0.19 µM	113	109	133
RPMI 5 mM glucose + 10% dialyzed FBS, 0.569 µM	113	105	128
RPMI 5 mM glucose + 10% dialyzed FBS, 1.71 µM	108	100	109
RPMI 5 mM glucose + 10% dialyzed FBS, 5.12 µM	104	101	115
RPMI 5 mM glucose + 10% dialyzed FBS, 15.4 µM	101	60.2	108
RPMI 5 mM glucose + 10% dialyzed FBS, 46.1 µM	107	74.4	93.7

AUC of viability dose-response curve
Settings	NOMO1 [4]	P12-Ichikawa [5]	SEM cells [6]
HPLM + 10% dialyzed FBS	465	447	459
RPMI 5 mM glucose + 10% FBS	451	449	458
RPMI 5 mM glucose + 10% dialyzed FBS	466	426	456

COc1cc2ncnc(Nc3cc(Br)c(O)c(Br)c3)c2cc1OC
cell viability [%]
Settings	NOMO1 [1]	P12-Ichikawa [2]	SEM cells [3]
HPLM + 10% dialyzed FBS, 0.000781 µM	95.8	98.7	80
HPLM + 10% dialyzed FBS, 0.00234 µM	91	103	90.5
HPLM + 10% dialyzed FBS, 0.00702 µM	114	106	97.8
HPLM + 10% dialyzed FBS, 0.0211 µM	112	101	98.4
HPLM + 10% dialyzed FBS, 0.0632 µM	107	112	109
HPLM + 10% dialyzed FBS, 0.19 µM	102	110	101
HPLM + 10% dialyzed FBS, 0.569 µM	120	109	113
HPLM + 10% dialyzed FBS, 1.71 µM	119	107	109
HPLM + 10% dialyzed FBS, 5.12 µM	97.2	106	104
HPLM + 10% dialyzed FBS, 15.4 µM	111	108	106
HPLM + 10% dialyzed FBS, 46.1 µM	85.6	96.5	78
RPMI 5 mM glucose + 10% FBS, 0.000781 µM	99.5	92.3	112
RPMI 5 mM glucose + 10% FBS, 0.00234 µM	115	104	107
RPMI 5 mM glucose + 10% FBS, 0.00702 µM	99.8	107	118
RPMI 5 mM glucose + 10% FBS, 0.0211 µM	103	114	121
RPMI 5 mM glucose + 10% FBS, 0.0632 µM	118	109	125
RPMI 5 mM glucose + 10% FBS, 0.19 µM	113	113	101
RPMI 5 mM glucose + 10% FBS, 0.569 µM	109	117	131
RPMI 5 mM glucose + 10% FBS, 1.71 µM	109	118	124
RPMI 5 mM glucose + 10% FBS, 5.12 µM	107	99.7	108
RPMI 5 mM glucose + 10% FBS, 15.4 µM	110	106	102
RPMI 5 mM glucose + 10% FBS, 46.1 µM	106	79.4	85.6
RPMI 5 mM glucose + 10% dialyzed FBS, 0.000781 µM	92.4	95.8	82.8
RPMI 5 mM glucose + 10% dialyzed FBS, 0.00234 µM	99.7	104	99.2
RPMI 5 mM glucose + 10% dialyzed FBS, 0.00702 µM	99.3	108	110
RPMI 5 mM glucose + 10% dialyzed FBS, 0.0211 µM	107	109	97.8
RPMI 5 mM glucose + 10% dialyzed FBS, 0.0632 µM	105	111	113
RPMI 5 mM glucose + 10% dialyzed FBS, 0.19 µM	96.8	114	99.7
RPMI 5 mM glucose + 10% dialyzed FBS, 0.569 µM	108	114	103
RPMI 5 mM glucose + 10% dialyzed FBS, 1.71 µM	112	118	108
RPMI 5 mM glucose + 10% dialyzed FBS, 5.12 µM	103	105	98.5
RPMI 5 mM glucose + 10% dialyzed FBS, 15.4 µM	104	109	89.1
RPMI 5 mM glucose + 10% dialyzed FBS, 46.1 µM	98.2	94.9	61.6

AUC of viability dose-response curve
Settings	NOMO1 [4]	P12-Ichikawa [5]	SEM cells [6]
HPLM + 10% dialyzed FBS	477	473	458
RPMI 5 mM glucose + 10% FBS	470	469	462
RPMI 5 mM glucose + 10% dialyzed FBS	467	472	461
